From patent publication EP0222578A2, “Use of cyclic somatostatin analogues in the treatment of immediate hypersensitivity diseases” (Merck & Co., Inc., priority 1985, dated 1987)

What was measured:
[1] = test system: Antigen-Induced Dyspnea in Inbred Rats; assay: Antigen-induced dyspnea in sensitized inbred asthmatic rats challenged with aerosolized egg albumin; format: in vivo; details: for Duration of Dyspnea in Minutes (Mean±S.D.) n=6/group: 1 mg/kg s.c. 1 hour before antigen challenge; for Inhibition %: inhibition of duration of dyspnea vs vehicle control, 1 mg/kg s.c. 1 hour
Excerpt: Sensitized inbred "asthmatic rats" challenged with aerosolized antigen respond with symptoms of continuous dyspnea which is partly mediated by serotonin. […] These rats differed from normal rats in that they have nonspecific bronchial hyperreactivity to a number of bronchoconstrictor agents (Brunet et al., J. Immun., 131, 434-438 (1983)].
• (1) Animals: Rats were obtained from an inbred line of asthmatic rats that were developed and maintained in local laboratories and later at a local farm. Male and female rats were used between 10-12 weeks of age. Their weights ranged from 220-240 gm (females) and 350-400 gm (males). Rats were matched by sex and littermates between the various treatment groups. • (2) Materials: Egg albumin (EA), grade V, crystallized and lyophilized (Sigma Chemical Co., St. Louis), aluminum hydroxide (Reheis Chemical Company, Chicago), and methysergide bimaleate (Sandoz Ltd., Basel, Switzerland). • (3) Apparatus: The challenge and subsequent respiratory recordings were carried out in a clear plastic box with internal dimensions 10 x 6 x 4 inches. The top of the box was removable; in use, it was held firmly in place by four clamps and an airtight seal was maintained by a soft rubber gasket. Through the centre of each end of the chamber a Devilbiss nebulizer (No. 40) was inserted via an airtight seal and each end of the box was also equipped with an outlet. A Fleisch No. 0000 pneumotachograph was inserted into one end of the box and coupled to a Grass volumetric pressure transducer (PT5-A) which was then connected to a Beckman Type R Dynograph through appropriate couplers. While aerosolizing the antigen, the outlets were open and the pneumotachograph was isolated from the chamber. The outlets were closed and the pneumotachograph and the chamber were connected during the recordings of the respiratory patterns. For challenge, 2 ml of 3% solution of antigen in saline was placed into each nebulizer and the aerosol was generated with air from a small Potter diaphragm pump operating at 10 psi and a flow of 8 litre/minute. • (4) Procedure: Rats were sensitized by injecting (s.c.) 1 ml of suspension containing 1 mg egg albumin (EA) and 200 mg aluminum hydroxide in saline. They were used on day 13 post sensitization. Rats were exposed to aerosol of 3% EA in saline for exatly 1 minute, then their respiratory profiles were recorded for an additional 30 minutes. The duration of continuous dyspnea was measured from the respiratory recordings.
Form.I-8) was administered subcutaneously as a solution in 5% mannitol 1 hour prior to challenge with antigen. Methysergide bimaleate was dissolved in saline and given intravenously at dose of 3 ug/kg 5 minutes before challenge. Dose volume employed for subcutaneous treatments was 2 ml/kg and for i.v. treatments 1 ml/kg. Control groups of rats (n-6) were treated subcutaneously with drug vehicle (5% mannitol).
The sensitivity of various drug treatments were determined in terms of the decrease in duration of dyspnea in comparison with a group of vehicle- treated controls. Comparisons between groups were made using the Student's t-test.

[2] = test system: Antigen-Induced Dyspnea in Inbred Rats; details: 3 µg/kg i.v. before challenge; background statement in the introduction; cited from earlier work

| SMILES | Duration of Dyspnea in Minutes (Mean±S.D.) n=6/group ([1]; + Methysergide (3 µg/kg i.v. 5 minutes prior to challenge)) | Duration of Dyspnea in Minutes (Mean±S.D.) n=6/group ([1]; - Methysergide) | activity on duration of antigen-induced dyspnea ([1]; 1 mg/kg s.c., without methysergide to block the serotonin component) | Inhibition % ([1]; + Methysergide (3 µg/kg i.v. 5 minutes prior to challenge), p < 0.01) | Inhibition % ([1]; + Methysergide (3 µg/kg i.v. 5 minutes prior to challenge); p < 0.01; listed as Form.1-8)) | Inhibition % ([1]; - Methysergide) | serotonin component of continuous dyspnea [2] |
| --- | --- | --- | --- | --- | --- | --- | --- |
| CC(C)[C@@H]1NC(=O)[C@H](CCCCN)NC(=O)[C@@H](Cc2c[nH]c3ccccc23)NC(=O)[C@H](Cc2ccc(O)cc2)NC(=O)[C@H](C)N(C)C(=O)[C@H](Cc2ccccc2)NC1=O [Form.I-8), Cycle-(N-Me-Ala-Tyr-D-Trp-Lys-Val-Phe)] | 5.7 ± 3.9 min | 18.2 ± 3.6 min | failed to produce activity | 57 p < 0.01% | 57% | 0% | – |
| CC[C@@H](CO)NC(=O)[C@@H]1C=C2c3cccc4c3c(cn4C)C[C@H]2N(C)C1 [methysergide, methysergide bimaleate] | – | – | – | – | – | – | completely blocked |
